Experimental findings from publication PMC7281206, “Cysteine Cathepsins Inhibition Affects Their Expression and Human Renal Cancer Cell Phenotype” (Cancers, 2020) are described below.

For this experiment, the system named is human recombinant CtsB. Put plainly: Fluorescent protease activity assay, recombinant CtsB. It is filed as biochemical. The conditions noted are these: 20 nM CtsB, 50 μM Ac-PLVQ-AMC, inhibitor 2 μM; 0.1 M sodium acetic buffer pH 4.6, 12 min, Ex/Em 353/442 nm. The procedure:
Ac-PLVE-FMK and Ac-VLPE-FMK inhibitory properties were evaluated against human recombinant CtsL and B. These recombinant enzymes were expressed in E. coli via plasmid transformation and further purification, using nickel-nitrilotriacetic acid (Ni-NTA) sepharose. Gel zymography assay was used to provide a preliminary evaluation of the ability of these recombinant proteins to degrade the gelatin substrate previously embedded in the gel (Supplementary Figure S1). Following Coomassie staining, the Cts were detectable as single bands. As expected, a translucent area was evident, due to the substrate digestion in the proximity of the proteins. Then, the recombinant proteins were tested for their ability to digest the Triticain-α substrate Ac-PLVQ via fluorescent protease activity assay, previously optimized by our group. This probe was conjugated with the fluorogenic chromophore 7-amino-4-methylcoumarin (Ac-PLVQ-AMC). After proteolytic cleavage, it emits a detectable fluorescent signal.
Total RNA extract from retinoblastoma […] cells was used to obtain cDNA. A pair of oligonucleotides ([…] and […]) was used for the amplification of DNA fragment containing CtsB, the product of which was ligated into pET15b (Merck Millipore, Billerica, MA, USA) using NdeI and XhoI. DNA fragment containing CtsL was amplified using a pair of oligonucleotides ([…] and […]) and ligated into pET28a (+) (Merck Millipore, Billerica, MA, USA) using NheI and HindIII. […]
The activity of recombinant CtsL and B was detected by the hydrolysis of the fluorogenic substrate Ac-Pro-Leu-Val-Gln- 7-amino-4-methylcoumarin (AMC) (Pepmic Suzhou Jiangsu, China). […] The substrate was added to a final concentration of 50 μM, and its hydrolysis was continuously measured for 12 min using a CLARIOstar® Plus plate reader (BMG Labtech Ortenberg Baden-Württemberg, Germany) at excitation and emission wavelengths of 353 and 442 nm, respectively.

*: point of attachment. CH2F = FC*

As for Ac-VLPE-CH2F [Ac-VLPE-FMK], the “Inhibition of Ac-PLVQ-AMC cleavage (fluorescent signal)” value was “the intensity of the fluorescent signal was significantly affected”.

As for Ac-PLVE-CH2F [Ac-PLVE-FMK], the “Inhibition of Ac-PLVQ-AMC cleavage (fluorescent signal)” value is on record as “the intensity of the fluorescent signal was significantly affected”.
